# Experimental data published in PubChem BioAssay AID602487 (The Scripps Research Institute Molecular Screening Center, 2012).
# Activity calls are given as the source filed them. The rule behind the calls is not given here.
# Test system: SARS coronavirus 3C-like protease (3CLpro)
# Test: SARS 3CLpro protease inhibitors, late-stage follow-up, biochemical, fluorescence, single concentration, set 5 (AID 602487)
# Details: purified 3CLpro, fluorogenic substrate cleavage; at 100 µM; stronger effect = higher value
row,SMILES,inhibition
1,CC(C)C(=O)Nc1ccc(N(Cc2ccsc2)C(=O)Cn2cc(-c3ccccc3)nn2)cc1,3.7% (inactive)
2,CC(=O)Nc1ccc(N(C(=O)Cn2cc([Si](C)(C)C)nn2)C(C(=O)NC(C)(C)C)c2ccsc2)cc1 (stereo not given),-3.9% (inactive)
3,CC(C)C(=O)Nc1ccc(N(Cc2ccsc2)C(=O)Cn2ccnn2)cc1,26.1% (inactive)
4,CC(=O)Nc1ccc(N(C(=O)Cn2ccnn2)C(C(=O)NC(C)(C)C)c2ccsc2)cc1 (stereo not given),5.4% (inactive)
5,CC(C)C(=O)Nc1ccc(N(Cc2ccsc2)C(=O)Cn2cc([Si](C)(C)C)nn2)cc1,4.5% (inactive)
